# Assay results taken from patent US11028084B2, “Selective inhibitors of gentotoxic steress-induced IKK/NF-κB pathways” (Max-Delbrück-Centrum für Molekulare Medizin in der …, priority 2016, dated 2021).
# Legend:
# [1] = tested on: IKKγ phosphorylation at S85; experiment: IKKγ S85 phosphorylation after irradiation, WB, MEF cells; assay type: cell-based, mouse; conditions: MEF (murine)
# Method: (§1) FIG. 11: (A) HEK293 cells were pre-incubated with DMSO, MW01 or ATM inhibitor KU55933 and irradiated. Lysates were subjected to SDS-PAGE/WB. The specific IKKγ S85 band (lower band) was identified by induction following irradiation and by sensitivity to ATMi and λ-phosphatase (λ-PP) treatment. The asterisk indicates a non-specific band that was neither inducible nor ATMi sensitive. (B) Experiment was done as shown in (A) using MEF cells. (C) HEK293 cells were pre-treated with DMSO or MW01, irradiated and lysed. Lysates were used to immunoprecipitate IKKγ using an IKKγ antibody.
# [2] = tested on: IKKγ phosphorylation at S85; experiment: IKKγ S85 phosphorylation after irradiation, WB, HEK293 cells; assay type: cell-based; conditions: HEK293 (human)
# Method: as §1
# [3] = tested on: ATM cytoplasmic translocation; experiment: Cytoplasmic accumulation of ATM, fractionation experiment (NE/CE) with WB, HepG2 cells; assay type: cell-based, human; conditions: 5 μM
# Method: FIG. 7: Cytoplasmic accumulation of ATM. (A) Fractionation experiment with separated nuclear extracts (NE) and cytoplasmic extracts (CE). PARP1 and LDH staining served as loading and fractionation controls. Cells were pre-treated with DMSO or MW01 (5 μM) prior to irradiation and cell harvesting at indicated times. NE and CE were subjected to SDS-PAGE/WB procedure. (B) U2OS cells were seeded on cover slips 2 days before treatment. The cells were pre-treated with solvent DMSO alone or with MW01 prior to irradiation, cell fixation and subsequent immunofluorescence staining.
# For the preparation of nuclear and cytoplasmic fractions, cells were lysed with buffer A (supplemented with 1 mM DTT, 10 mM NaF, 20 mM β-glycerophosphate, 250 nM NaVO3, complete protease inhibitor cocktail (Roche) and 50 nM calyculin A. Lysates were adjusted to a final concentration of 0.2% NP-40, vortexed for 10 s and spun down. The supernatant, representing the cytoplasmic extract (CE), was transferred into a new 1.5 ml reaction tube. The pellet was washed with buffer A, was resuspended with buffer C and shaken for 20 min at 4° C. Following 10 min of centrifugation at 14,000 rpm, the supernatant, representing the nuclear extract (NE), was transferred into a new reaction cap.
# [4] = tested on: TNFα-induced NF-κB activation; experiment: p65 S536 phosphorylation after TNFα stimulation, SDS-PAGE/WB, U2OS cells; assay type: cell-based, human; conditions: 10 μM and 20 μM
# Method: FIG. 4: (A) U2OS cells were pre-treated with increasing concentrations of MW01 in triplicates in a 384 well plate. Then, cells were treated with TNFα, fixed and subjected to IF staining of p65. Spatial measurement of p65 cytosolic and nuclear signals was used for the calculation of p65 translocation rates. (B) U2OS cells were pre-treated with MW01 at concentrations of 10 or 20 μM and stimulated with TNFα. Cell lysates were subjected to SDS-PAGE/WB. (C) HEK293 cells were pre-treated with DMSO or MW01 followed by administration of etoposide or TNFα. Cell lysates were used for EMSA.
# For the activation of the canonical NF-κB pathway cells were treated with recombinant human TNFα (10 ng/ml) or IL-1β (10 ng/ml) for 20-30 min at 37° C.
structure (smiles),measurement,setting,value
"COc1ccc2c(c1OC)c(=O)n1c3ccc(O)cc3c3ccnc2c31 [MW01, 12-hydroxy-6,7-dimethoxy-8H-benzo[c]indolo[3,2,1-ij][1,5]naphthyridin-8-one]",phosphorylation of IKKγ at S85,[1],abolished
same,phosphorylation of IKKγ at S85,[2],abolished
same,accumulation of total ATM in the cytoplasm,[3]; 45 min after irradiation,inhibited the accumulation of ATM in the cytoplasm
same,detection of phosphorylated ATM in nuclear extracts,[3]; 45 min and 90 min after irradiation,did not affect
same,detection of activated ATM species in the cytoplasmic extracts,[3]; after irradiation,abolished
same,p65 S536 phosphorylation after TNFα,[4],no effect
